# Where “and” joins values, the source holds several entries; their conditions need not be identical. Equal entries are not always repeated.
# Experiments:
# [1] = tested on: Panel NCI-60 (60 carcinoma cell lines); assay: Total growth inhibition of human MG-MID cell line at 10E-4 M concentration; assay type: functional
# Ovarian carcinoma cell [2] = assay: Total growth inhibition of human Ovarian cell line at 10E-4 M concentration; assay type: functional
# NSCLC [3] = assay: Total growth inhibition of human NSCLC cell line at 10E-4 M concentration; assay type: functional
# Renal cell [4] = assay: Cytotoxic effect dissolved in DMSO against Renal cell line at 10E-4 M concentration; assay type: functional, Homo sapiens
# Breast carcinoma cell [5] = assay: Cytotoxic effect dissolved in DMSO against Breast cell line at 10E-4 M concentration; assay type: functional, Homo sapiens
# Prostate cell [6] = assay: Total growth inhibition of human Prostate cell line at 10E-4 M concentration; assay type: functional
# Colon cell [7] = assay: Cytotoxic effect dissolved in DMSO against Colon cell line at 10E-4 M concentration; assay type: functional, Homo sapiens
# [8] = tested on: Panel NCI-60 (60 carcinoma cell lines); assay: Cytotoxic effect dissolved in DMSO against MG-MID cell line at 10E-4 M concentration; assay type: functional, Homo sapiens
# HT-29 [9] = assay: Percentage of Cells after administration of compound dissolved in DMSO (10e-4 M) towards colon adenocarcinoma cell line HT-29 in G2/M Phase after 24 Hours of Treatment [control = 10]; assay type: functional, Homo sapiens
# Melanoma cell [10] = assay: Total growth inhibition of human Melanoma cell line at 10E-4 M concentration; assay type: functional
# Melanoma cell [11] = assay: Cytotoxic effect dissolved in DMSO against Melanoma cell line at 10E-4 M concentration; assay type: functional, Homo sapiens
# CNS cell [12] = assay: Growth inhibitory concentration dissolved in DMSO against human CNS cell line at 10E-4 M concentration; assay type: functional
# CNS cell [13] = assay: Cytotoxic effect dissolved in DMSO against CNS cell line at 10E-4 M concentration; assay type: functional, Homo sapiens
# HT-29 [14] = assay: Percentage of Cells after administration of compound dissolved in DMSO (10e-5 M) towards colon adenocarcinoma cell line HT-29 in G2/M Phase after 24 Hours of Treatment [control = 10]; assay type: functional, Homo sapiens
# Colon cell [15] = assay: Growth inhibitory concentration dissolved in DMSO against human Colon cell line at 10E-4 M concentration; assay type: functional
# NSCLC [16] = assay: Cytotoxic effect dissolved in DMSO against NSCLC cell line at 10E-4 M concentration; assay type: functional, Homo sapiens
# HT-29 [17] = assay: Percentage of Cells after administration of compound dissolved in DMSO (10e-8 M) towards colon adenocarcinoma cell line HT-29 in G2/M Phase after 24 Hours of Treatment [control = 10]; assay type: functional, Homo sapiens
# HT-29 [18] = assay: Percentage of Cells after administration of compound dissolved in DMSO (10e-7M) towards colon adenocarcinoma cell line HT-29 in G2/M Phase after 24 Hours of Treatment [control = 10]; assay type: functional, Homo sapiens
# Colon cell [19] = assay: Total growth inhibition of human Colon cell line at 10E-4 M concentration; assay type: functional; set-up: unit not given here
# Prostate cell [20] = assay: Cytotoxic effect dissolved in DMSO against Prostate cell line at 10E-4 M concentration; assay type: functional, Homo sapiens
# Ovarian carcinoma cell [21] = assay: Growth inhibitory concentration dissolved in DMSO against human Ovarian cell line at 10E-4 M concentration; assay type: functional
# [22] = tested on: Panel NCI-60 (60 carcinoma cell lines); assay: Growth inhibitory concentration dissolved in DMSO against human MG-MID cell line at 10E-4 M concentration; assay type: functional
# Ovarian carcinoma cell [23] = assay: Cytotoxic effect dissolved in DMSO against Ovarian cell line at 10E-4 M concentration; assay type: functional, Homo sapiens
# HT-29 [24] = assay: Percentage of Cells after administration of compound dissolved in DMSO (10e-6 M) towards colon adenocarcinoma cell line HT-29 in G2/M Phase after 24 Hours of Treatment [control = 10]; assay type: functional, Homo sapiens
# Prostate cell [25] = assay: Growth inhibitory concentration dissolved in DMSO against human Prostate cell line at 10E-4 M concentration; assay type: functional
# Melanoma cell [26] = assay: Growth inhibitory concentration dissolved in DMSO against human Melanoma cell line at 10E-4 M concentration; assay type: functional
# NSCLC [27] = assay: Growth inhibitory concentration dissolved in DMSO against human NSCLC cell line at 10E-4 M concentration; assay type: functional; set-up: unit not given here
# Breast carcinoma cell [28] = assay: Total growth inhibition of human Breast cell line at 10E-4 M concentration; assay type: functional
# Renal cell [29] = assay: Growth inhibitory concentration dissolved in DMSO against human Renal cell line at 10E-4 M concentration; assay type: functional; set-up: unit not given here
# Breast carcinoma cell [30] = assay: Growth inhibitory concentration dissolved in DMSO against human Breast cell line at 10E-4 M concentration; assay type: functional
# Melanoma cell [31] = assay: Cytotoxic effect dissolved in DMSO against Melanoma cell line at 10E-3 M concentration; assay type: functional, Homo sapiens
# CNS cell [32] = assay: Growth inhibitory concentration dissolved in DMSO against human CNS cell line at 10E-3 M concentration; assay type: functional
# Ovarian carcinoma cell [33] = assay: Cytotoxic effect dissolved in DMSO against Ovarian cell line at 10E-3 M concentration; assay type: functional, Homo sapiens
# NSCLC [34] = assay: Total growth inhibition of human NSCLC cell line at 10E-3 M concentration; assay type: functional
# CNS cell [35] = assay: Cytotoxic effect dissolved in DMSO against CNS cell line at 10E-3 M concentration; assay type: functional, Homo sapiens
# Ovarian carcinoma cell [36] = assay: Total growth inhibition of human Ovarian cell line at 10E-3 M concentration; assay type: functional
# NSCLC [37] = assay: Cytotoxic effect dissolved in DMSO against NSCLC cell line at 10E-3 M concentration; assay type: functional, Homo sapiens
# Prostate cell [38] = assay: Growth inhibitory concentration dissolved in DMSO against human Prostate cell line at 10E-3 M concentration; assay type: functional
# [39] = tested on: Panel NCI-60 (60 carcinoma cell lines); assay: Cytotoxic effect dissolved in DMSO against MG-MID cell line at 10E-3 M concentration; assay type: functional, Homo sapiens
# Colon cell [40] = assay: Cytotoxic effect dissolved in DMSO against Colon cell line at 10E-3 M concentration; assay type: functional, Homo sapiens
# Ovarian carcinoma cell [41] = assay: Growth inhibitory concentration dissolved in DMSO against human Ovarian cell line at 10E-3 M concentration; assay type: functional
# CNS cell [42] = assay: Total growth inhibition of human CNS cell line at 10E-3 M concentration; assay type: functional
# Prostate cell [43] = assay: Cytotoxic effect dissolved in DMSO against Prostate cell line at 10E-3 M concentration; assay type: functional, Homo sapiens
# Leukemia cell [44] = assay: Total growth inhibition of human Leukemia cell line at 10E-3 M concentration; assay type: functional
# Renal cell [45] = assay: Growth inhibitory concentration dissolved in DMSO against human Renal cell line at 10E-3 M concentration; assay type: functional
# Breast carcinoma cell [46] = assay: Growth inhibitory concentration dissolved in DMSO against human Breast cell line at 10E-3 M concentration; assay type: functional
# Leukemia cell [47] = assay: Cytotoxic effect dissolved in DMSO against Leukemia cell line at 10E-3 M concentration; assay type: functional, Homo sapiens
# Melanoma cell [48] = assay: Total growth inhibition of human Melanoma cell line at 10E-3 M concentration; assay type: functional
# Renal cell [49] = assay: Cytotoxic effect dissolved in DMSO against Renal cell line at 10E-3 M concentration; assay type: functional, Homo sapiens
# [50] = tested on: Panel NCI-60 (60 carcinoma cell lines); assay: Growth inhibitory concentration dissolved in DMSO against human MG-MID cell line at 10E-3 M concentration; assay type: functional
# NSCLC [51] = assay: Growth inhibitory concentration dissolved in DMSO against human NSCLC cell line at 10E-3 M concentration; assay type: functional
# [52] = tested on: Panel NCI-60 (60 carcinoma cell lines); assay: Total growth inhibition of human MG-MID cell line at 10E-3 M concentration; assay type: functional
# Breast carcinoma cell [53] = assay: Total growth inhibition of human Breast cell line at 10E-3 M concentration; assay type: functional
# Colon cell [54] = assay: Total growth inhibition of human Colon cell line at 10E-3 M concentration; assay type: functional
# Leukemia cell [55] = assay: Growth inhibitory concentration dissolved in DMSO against human leukemia cell line at 10E-3 M concentration; assay type: functional
# Breast carcinoma cell [56] = assay: Cytotoxic effect dissolved in DMSO against Breast cell line at 10E-3 M concentration; assay type: functional, Homo sapiens
# Colon cell [57] = assay: Growth inhibitory concentration dissolved in DMSO against human Colon cell line at 10E-3 M concentration; assay type: functional
# Melanoma cell [58] = assay: Growth inhibitory concentration dissolved in DMSO against human Melanoma cell line at 10E-3 M concentration; assay type: functional
# Prostate cell [59] = assay: Total growth inhibition of human Prostate cell line at 10E-3 M concentration; assay type: functional
# Renal cell [60] = assay: Total growth inhibition of human Renal cell line at 10E-3 M concentration; assay type: functional
compound,measurement,setting,value
Cc1cn2c(/C=C3/C(=O)Nc4ccc(Cl)cc43)c(C)nc2s1,TGI,[1],4.81
same,TGI,Ovarian carcinoma cell [2],4.82
same,TGI,NSCLC [3],4.65
same,LC50,Renal cell [4],4.06
same,LC50,Breast carcinoma cell [5],4.02
same,TGI,Prostate cell [6],5.62
same,LC50,Colon cell [7],4.34
same,LC50,[8],4.15
same,Activity,HT-29 [9],61.6%
same,TGI,Melanoma cell [10],4.6
same,LC50,Melanoma cell [11],4.06
same,"pGI50 (-log GI50, M)",CNS cell [12],6.13
same,LC50,CNS cell [13],4.16
same,Activity,HT-29 [14],86.2%
same,pGI50 (negative log of molar GI50),Colon cell [15],6.72
same,LC50,NSCLC [16],4.16
same,Activity,HT-29 [17],11.1%
same,Activity,HT-29 [18],9.7%
same,TGI,Colon cell [19],5.06 and 5.08
same,LC50,Prostate cell [20],4.36
same,pGI50 (negative log of GI50 in M),Ovarian carcinoma cell [21],5.91
same,GI50,[22],-6.42
same,LC50,Ovarian carcinoma cell [23],4.3
same,Activity,HT-29 [24],72%
same,pGI50 (negative log molar GI50),Prostate cell [25],6.98
same,pGI50 (-log molar GI50),Melanoma cell [26],6.21
same,GI50,NSCLC [27],6.17
same,TGI,Breast carcinoma cell [28],4.85
same,GI50,Renal cell [29],6.54
same,"pGI50 (-log GI50, M)",Breast carcinoma cell [30],6.51
CC[C@]1(O)C[C@H]2CN(CCc3c([nH]c4ccccc34)[C@@](C(=O)OC)(c3cc4c(cc3OC)N(C=O)[C@H]3[C@@](O)(C(=O)OC)[C@H](OC(C)=O)[C@]5(CC)C=CCN6CC[C@]43[C@@H]65)C2)C1.O=S(=O)(O)O [VINCRISTINE SULFATE],LC50,Melanoma cell [31],3.6
same,pGI50,CNS cell [32],6.9
same,LC50,Ovarian carcinoma cell [33],3.5
same,pTGI,NSCLC [34],4.8
same,LC50,CNS cell [35],3.7
same,pTGI,Ovarian carcinoma cell [36],4.7
same,LC50,NSCLC [37],3.6
same,pGI50,Prostate cell [38],6.9
same,LC50,[39],3.6
same,LC50,Colon cell [40],4.1
same,pGI50,Ovarian carcinoma cell [41],6.5
same,pTGI,CNS cell [42],5.2
same,LC50,Prostate cell [43],3.5
same,pTGI,Leukemia cell [44],4.8
same,pGI50,Renal cell [45],6.5
same,pGI50,Breast carcinoma cell [46],6.5
same,LC50,Leukemia cell [47],3.2
same,pTGI,Melanoma cell [48],5.1
same,LC50,Renal cell [49],3.6
same,pGI50,[50],6.7
same,pGI50,NSCLC [51],6.6
same,pTGI,[52],5
same,pTGI,Breast carcinoma cell [53],5.1
same,pTGI,Colon cell [54],5.4
same,pGI50,Leukemia cell [55],7
same,LC50,Breast carcinoma cell [56],3.5
same,pGI50,Colon cell [57],7
same,pGI50,Melanoma cell [58],6.8
same,pTGI,Prostate cell [59],5.2
same,pTGI,Renal cell [60],4.7
